Laboratory results published in ChEMBL document CHEMBL5506049, “Discovery of Novel Small-Molecule-Based Potential PD-L1/EGFR Dual Inhibitors with High Druggability for Glioblastoma Immunotherapy” (J Med Chem, 2024).

Columns and labels:
U-87 MG [1] = experiment: Induction of cell cycle arrest in human U-87 MG cells assessed as decrease in accumulation of cells at S phase at 0.5 uM incubated for 48 hrs by flow cytometry (reference value: 30.36%); format: functional, U-87MG ATCC; design: scale not given: the % may be the effect or the level left
U-251 = experiment: cells; details: Homo sapiens, U-251, 72 h
Description: Antiproliferative activity against human U-251 cells incubated for 72 hrs by MTT assay

[2] = MRT (0 to t) in Sprague-Dawley rat at 4 mg/kg, iv measured upto 72 hrs by (LC-MS)/MS analysis; format: ADME, organism-based; details: in vivo
[3] = MRT (0 to infinity) in Sprague-Dawley rat at 4 mg/kg, iv measured upto 72 hrs by (LC-MS)/MS analysis; format: ADME, organism-based; details: in vivo
GL261 = experiment: In vivo antitumor activity against […] GL261 cells xenografted in intragastrically dosed C57BL/6 mouse assessed as decrease in tumor size treated for 21 days relative to control; format: functional, organism-based; details: route ig, time 21.0 day
[4] = In vivo antitumor activity against […] GL261 cells xenografted in C57BL/6 mouse assessed as decrease in PD-L1 expression in tumor tissue at 100 mg/kg, IG treated for 21 days relative to control; format: functional; design: scale not given: the % may be the effect or the level left; details: time 21 day
[5] = Cmax in Sprague-Dawley rat at 4 mg/kg, iv measured upto 72 hrs by (LC-MS)/MS analysis; format: ADME, organism-based; details: in vivo
[6] = Half life in Sprague-Dawley rat at 20 mg/kg, po measured upto 72 hrs by (LC-MS)/MS analysis; format: ADME, organism-based; details: in vivo
cells = details: Homo sapiens, U87MG Human EGFR vIII, 72 h
Description: Antiproliferative activity against human U87vIII cells expressing EGFRvIII incubated for 72 hrs by MTT assay

[7] = MRT (0 to infinity) in Sprague-Dawley rat at 20 mg/kg, po measured upto 72 hrs by (LC-MS)/MS analysis; format: ADME, organism-based; details: in vivo
[8] = Half life in Sprague-Dawley rat at 4 mg/kg, iv measured upto 72 hrs by (LC-MS)/MS analysis; format: ADME, organism-based; details: in vivo
[9] = Volume of distribution in Sprague-Dawley rat at 4 mg/kg, iv measured upto 72 hrs by (LC-MS)/MS analysis; format: ADME, organism-based; details: in vivo
[10] = Toxicity in C57BL/6 mouse xenografted with […] GL261 cells assessed as cell necrosis in heart at 100 mg/kg, IG treated for 21 days by hematoxylin-eosin staining based microscopy assay; format: organism-based; details: in vivo, po, 504 h, time 21 day
[11] = Toxicity in C57BL/6 mouse xenografted with […] GL261 cells assessed as body weight loss at 50 to 100 mg/kg, IG treated for 21 days; format: organism-based; details: in vivo, po, 504 h, dose 50-100 mg/kg, time 21 day
U-87 MG [12] = experiment: Induction of cell cycle arrest in human U-87 MG cells assessed as accumulation of cells at G0/G1 phase at 2 uM incubated for 48 hrs by flow cytometry (reference value: 60.51%); format: functional, U-87MG ATCC
[13] = In vivo antitumor activity against […] GL261 cells xenografted in C57BL/6 mouse assessed as decrease in tumor weight at 100 mg/kg, IG treated for 21 days relative to control; format: functional; design: scale not given: the % may be the effect or the level left; details: time 21 day
[14] = Tmax in Sprague-Dawley rat at 20 mg/kg, po measured upto 72 hrs by (LC-MS)/MS analysis; format: ADME, organism-based; details: in vivo
[15] = AUC (0 to infinity) in Sprague-Dawley rat at 4 mg/kg, iv measured upto 72 hrs by (LC-MS)/MS analysis; format: ADME, organism-based; details: in vivo
[16] = Volume of distribution in Sprague-Dawley rat at 20 mg/kg, po measured upto 72 hrs by (LC-MS)/MS analysis; format: ADME, organism-based; details: in vivo
[17] = In vivo antitumor activity against […] GL261 cells xenografted in C57BL/6 mouse assessed as decrease in EGFR phosphorylation in tumor tissue at 100 mg/kg, IG treated for 21 days relative to control; format: functional; design: scale not given: the % may be the effect or the level left; details: time 21 day
U-87 MG [18] = experiment: In vitro immunoregulatory effect in IFN-gamma stimulated human U-87 MG cells co-cultured with PHA-P stimulated with human Jurkat T cell assessed as cytotoxicity by measuring cell viability at 0.5 uM incubated for 48 hrs by CCK-8 assay relative to control; format: functional, U-87MG ATCC
[19] = In vivo antitumor activity against […] GL261 cells xenografted in C57BL/6 mouse assessed as tumor growth inhibition (tumor volume decrease) at 100 mg/kg, IG treated for 21 days relative to control; format: functional; details: GL261, po, 504 h, time 21 day, read-out: TGI
[20] = Toxicity in C57BL/6 mouse xenografted with […] GL261 cells assessed as cell necrosis in kidney at 100 mg/kg, IG treated for 21 days by hematoxylin-eosin staining based microscopy assay; format: organism-based; details: in vivo, po, 504 h, time 21 day
[21] = Clearance in Sprague-Dawley rat at 4 mg/kg, iv measured upto 72 hrs by (LC-MS)/MS analysis; format: ADME, organism-based; details: in vivo
[22] = target: Programmed cell death 1 ligand 1 (Mus musculus) (UniProt Q9EP73); experiment: (§1) Binding affinity to recombinant mouse His-tagged PD-L1 expressed in HEK293 cells by SPR analysis
[23] = target: Programmed cell death 1 ligand 1 (Mus musculus, UniProt Q9EP73); experiment: as §1
U-87 MG [24] = experiment: Induction of cell cycle arrest in human U-87 MG cells assessed as accumulation of cells at G0/G1 phase at 1 uM incubated for 48 hrs by flow cytometry (reference value: 60.51%); format: functional, U-87MG ATCC
[25] = Oral bioavailability in Sprague-Dawley rat at 20 mg/kg measured upto 72 hrs by (LC-MS)/MS analysis; format: ADME, organism-based; details: in vivo
[26] = AUC (0 to t) in Sprague-Dawley rat at 20 mg/kg, po measured upto 72 hrs by (LC-MS)/MS analysis; format: ADME, organism-based; details: in vivo
[27] = AUC (0 to infinity) in Sprague-Dawley rat at 20 mg/kg, po measured upto 72 hrs by (LC-MS)/MS analysis; format: ADME, organism-based; details: in vivo
U-87 MG [28] = experiment: Induction of cell cycle arrest in human U-87 MG cells assessed as decrease in accumulation of cells at S phase at 1 uM incubated for 48 hrs by flow cytometry (reference value: 30.36%); format: functional, U-87MG ATCC; design: scale not given: the % may be the effect or the level left
[29] = Toxicity in C57BL/6 mouse xenografted with […] GL261 cells assessed as adverse effect at 50 to 100 mg/kg, IG treated for 21 days; format: organism-based; details: in vivo, po, 504 h, dose 50-100 mg/kg, time 21 day
[30] = In vivo antitumor activity against […] GL261 cells xenografted in C57BL/6 mouse assessed as tumor growth inhibition (tumor volume decrease) at 50 mg/kg, IG treated for 21 days relative to control; format: functional; details: GL261, po, 504 h, time 21 day, read-out: TGI
U-87 MG [31] = experiment: Cytotoxicity activity against human U-87 MG cells assessed as cell viability at 0.5 uM incubated for 48 hrs by CCK-8 assay relative to control; format: functional, U-87MG ATCC; details: read-out: Activity
[32] = In vivo antitumor activity against […] GL261 cells xenografted in C57BL/6 mouse assessed as tumor growth inhibition (tumor weight decrease) at 50 mg/kg, IG treated for 21 days relative to control; format: functional; details: GL261, po, 504 h, time 21 day, read-out: TGI
[33] = In vivo antitumor activity against […] GL261 cells xenografted in C57BL/6 mouse assessed as decrease in tumor volume at 100 mg/kg, IG treated for 21 days relative to control; format: functional; design: scale not given: the % may be the effect or the level left; details: time 21 day
[34] = Clearance in Sprague-Dawley rat at 20 mg/kg, po measured upto 72 hrs by (LC-MS)/MS analysis; format: ADME, organism-based; details: in vivo

Chain of Programmed cell death 1 ligand 1 (Mus musculus) (Q9EP73 whole entry): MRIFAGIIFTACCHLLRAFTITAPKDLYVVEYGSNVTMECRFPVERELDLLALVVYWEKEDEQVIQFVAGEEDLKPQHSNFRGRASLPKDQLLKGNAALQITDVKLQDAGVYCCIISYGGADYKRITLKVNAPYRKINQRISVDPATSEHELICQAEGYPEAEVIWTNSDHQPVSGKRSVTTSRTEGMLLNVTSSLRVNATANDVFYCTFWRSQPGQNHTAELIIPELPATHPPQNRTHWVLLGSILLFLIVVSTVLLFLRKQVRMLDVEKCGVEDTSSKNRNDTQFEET
Chain of Programmed cell death 1 ligand 1 (Q9EP73 whole entry): as above

- IC50 (U-251): 1020 nM
- MRT last at 72 h [2]: 12.7 h
- MRT inf [3]: 12.5 h
- Cmax [5]: 326 ng/mL
- half-life [6]: 13 h
- IC50 (cells): 280 nM
- MRT inf [7]: 17.2 h
- half-life [8]: 6.8 h
- Vd [9]: 13.7 L/kg
- Tmax [14]: 3.6 h
- AUC(0-inf) [15]: 2910 ng·h/mL
- Vd [16]: 123.5 L/kg
- clearance [21]: 25 mL/min/kg
- bioavailability [25]: 22.2%
- AUC(0-t) at 72 h [26]: 3150 ng·h/mL
- AUC(0-inf) [27]: 3240 ng·h/mL
- CL/F [34]: 107 mL/min/kg
SMILES: COc1cc2ncnc(Nc3cccc(Cl)c3F)c2cc1OCCCCNCc1c(OC)cc(OCc2cccc(-c3ccccc3)c2C)cc1OC
- Activity (U-87 MG [1]): 28.36%
- Activity (GL261): Dose-Dependent Effect
- Activity [4]: ~30%
- Activity [10]: Non-Toxic
- Activity [11]: Non-Toxic
- Activity (U-87 MG [12]): 73.98%
- Activity [13]: 92%
- Activity [17]: ~50%
- Activity (U-87 MG [18]): 73.8%
- inhibition in vivo at 100 mg/kg [19]: 89.4%
- Activity [20]: Non-Toxic
- Activity [22]: Dose-Dependent Effect
- Kd [23]: 520 nM
- Activity (U-87 MG [24]): 69.48%
- Activity (U-87 MG [28]): 22.89%
- Activity [29]: Non-Toxic
- inhibition in vivo at 50 mg/kg [30]: 55.8%
- viability at 0.5 µM (U-87 MG [31]): 96.9%
- inhibition in vivo at 50 mg/kg [32]: 61.4%
- Activity [33]: 89.7%
